Experimental findings from US10633419B2, “Immunomodulators” (BRISTOL-MYERS SQUIBB COMPANY, priority 2014, dated 2020) are described below.

The structures appear in SMILES notation. Starred links: 1 amine or outer side, 2 acyl side, 3 side chain; linkers in the order of their positions; H or OH if unused. Positions of bridges follow the written chain, without caps; N, C: chain ends. Non-standard residues stand in square brackets, D forms with d. Residues, ends and D or L forms follow the SMILES beside them. Groups on a side chain read outwards from the residue. *: point of attachment. X17 = COCCOCCOCCOCCOCCOCCOCCOCCOCCOCCOCCOCCOCCOCCOCCOCCOCCOCCOCCOCCOCCOCCOCCOCCOCCOCCOCCOCCOCCOCCOCCOCCOCCOCCOCCOCCOCCOCCOCCOCCOCCOCCOCCOCCOCCOCCOCCOCCOCCC(=O)*; X6 = O=C(O)CCCCCCCCCCCCCCCCC(=O)N[C@@H](CCC(=O)NCCCOCCOCCOCCCN*)C(=O)O; X18 = O=C(O)CCCCCCCCCCCCCCC(=O)N[C@@H](CC(=O)NCCCOCCOCCOCCCN*)C(=O)O; Trp(1-CH2COOH) = N[C@@H](Cc1cn(CC(=O)O)c2ccccc12)C(=O)O; Phe(3,4,5-F3) = N[C@@H](Cc1cc(F)c(F)c(F)c1)C(=O)O; Phe(4-F) = N[C@@H](Cc1ccc(F)cc1)C(=O)O; γGlu = O=C(O)[C@H](CCC(=O)[*:2])N[*:1]; d(cisHyp) = O=C(O)[C@H]1C[C@@H](O)CN1; NH(CH2)12COOH = O=C(O)CCCCCCCCCCCCN*; Hyp = O=C(O)[C@@H]1C[C@@H](O)CN1; NMeF = CN[C@@H](Cc1ccccc1)C(=O)O; Myristoyl = CCCCCCCCCCCCCC(=O)*; dHyp = O=C(O)[C@H]1C[C@H](O)CN1; NMeNle = CCCC[C@H](NC)C(=O)O; Dap(Me) = CNC[C@H](N)C(=O)O; Pip = O=C(O)[C@@H]1CCCCN1; dPip = O=C(O)[C@H]1CCCCN1; NMeA = CN[C@@H](C)C(=O)O; Pra = C#CC[C@H](N)C(=O)O; Dab = NCC[C@H](N)C(=O)O; Dap = NC[C@H](N)C(=O)O

One experiment deals with T1, PD-L1 (Homo sapiens, UniProt Q9NZQ7).
T1 construct: hPDL1(19-239)-TVMV-His; made in house; host or cells: HEK293T
T1 sequence (Q9NZQ7 with tags, fused parts or gaps): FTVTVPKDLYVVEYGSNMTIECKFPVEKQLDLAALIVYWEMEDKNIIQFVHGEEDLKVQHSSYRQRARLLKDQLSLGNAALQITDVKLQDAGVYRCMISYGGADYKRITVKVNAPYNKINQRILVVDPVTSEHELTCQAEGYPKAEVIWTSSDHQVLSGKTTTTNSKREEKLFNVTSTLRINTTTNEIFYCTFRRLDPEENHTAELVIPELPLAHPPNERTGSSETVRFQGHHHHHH
Briefly: PD-1/PD-L1 Homogenous Time-Resolved Fluorescence (HTRF) binding assay (PD-1-Ig/PD-L1-His). The settings on record: inhibition of PD-1-Ig binding to PD-L1-TVMV-His; value given as number; read-out: HTRF IC50. The procedure, abridged:
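Inhibitors pre-incubated 15 min with PD-L1-His (10 nM final), then PD-1-Ig (20 nM final) added for 15 min in dPBS/0.1% BSA/0.05% Tween-20. Eu-cryptate anti-Ig (1 nM) and APC anti-His (20 nM) added, 30 min equilibration, 665/620 nm HTRF ratio read.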
For orientation: TR-FRET usually uses a lanthanide donor and a delayed reading to cut background.
By IC50 is commonly meant the point on the concentration scale where inhibition reaches its midpoint. In the case of `CCCC[C@H]1C(=O)N2C[C@H](O)C[C@@H]2C(=O)N[C@@H](CC(=O)O)C(=O)N[C@@H](C(C)C)C(=O)N(C)[C@@H](Cc2ccccc2)C(=O)N[C@@H](Cc2ccc(O)cc2)C(=O)N2CCCC[C@@H]2C(=O)N[C@@H](Cc2c[nH]c3ccccc23)C(=O)N[C@@H](Cc2ccc(O)cc2)C(=O)N[C@@H](CC(C)C)C(=O)N[C@H](C(=O)NCC(=O)NCC(=O)NCC(=O)N[C@@H](CCCCNC(=O)CCOCCOCCOCCOCCOCCOCCOCCOCCOCCOCCOCCOCCOCCOCCOCCOCCOCCOCCOCCOCCOCCOCCOCCOCCOCCOCCOCCOCCOCCOCCOCCOCCOCCOCCOCCOCCOCCOCCOCCOCCOCCOCCOCCOCCOCCOCCOCCOCCOC)C(N)=O)CSCC(=O)N[C@@H](Cc2cc(F)c(F)c(F)c2)C(=O)N(C)[C@@H](Cc2ccccc2)C(=O)N1C` [Example 3625] ({CH2CO}-[Phe(3,4,5-F3)][NMeF][NMeNle][d(cisHyp)]DV[NMeF]Y[dPip]WYLCGGGK(X17)-NH2; thioether N-13), the IC50 was 6.3 nM.
On the same count and under the same terms, the same measure for `CCCC[C@H]1C(=O)N(C)[C@@H](CCCC)C(=O)N[C@@H](CC(C)C)C(=O)N[C@H](C(=O)NCC(=O)N[C@@H](CC(=O)O)C(=O)N[C@@H](CC(=O)NCCCOCCOCCOCCCNC(=O)C[C@H](NC(=O)CCCCCCCCCCCCCCC(=O)O)C(=O)O)C(=O)O)CSCC(=O)N[C@@H](Cc2ccc(O)cc2)C(=O)N(C)[C@@H](C)C(=O)N[C@@H](CC(N)=O)C(=O)N2CCC[C@@H]2C(=O)N[C@@H](CN)C(=O)N[C@@H](CC(C)C)C(=O)N2C[C@@H](O)C[C@@H]2C(=O)N[C@@H](Cc2c[nH]c3ccccc23)C(=O)N[C@@H](CCN)C(=O)N[C@@H](Cc2cn(CC(=O)O)c3ccccc23)C(=O)N1C` [Example 11240] ({CH2CO}-Y[NMeA]N[dP][Dap]L[dHyp]W[Dab][Trp(1-CH2COOH)][NMeNle][NMeNle]LCGDD(X18)-OH; thioether N-14): 10 nM.

Still in this experiment, the particulars now being: inhibition of PD-1-Ig binding to PD-L1-TVMV-His; value given as range class; read-out: HTRF IC50.
For the molecule `CCCCCCCCCCCCCC(=O)N[C@@H](CCC(=O)NCCCC[C@H](NC(=O)CNC(=O)CNC(=O)CNC(=O)CNC(=O)[C@@H]1CSCC(=O)N[C@@H](Cc2ccc(O)cc2)C(=O)N(C)[C@@H](C)C(=O)N[C@@H](CC(N)=O)C(=O)N2CCC[C@H]2C(=O)N[C@@H](Cc2cnc[nH]2)C(=O)N[C@@H](CC(C)C)C(=O)N2C[C@H](O)C[C@H]2C(=O)N[C@@H](Cc2c[nH]c3ccccc23)C(=O)N[C@@H](CO)C(=O)N[C@@H](Cc2c[nH]c3ccccc23)C(=O)N(C)[C@@H](CCCC)C(=O)N(C)[C@@H](CCCC)C(=O)N[C@@H](CCCNC(=N)N)C(=O)N1)C(N)=O)C(=O)O` [Example 11114] ({CH2CO}-Y[NMeA]NPHL[Hyp]WSW[NMeNle][NMeNle]RCGGGGK([γGlu-Myristoyl])-NH2; thioether N-14), the IC50 was in the range of 100 to 1600 nM.
On the same count and under the same terms, the same measure for `CCCC[C@H]1C(=O)N(C)[C@@H](CCCC)C(=O)N[C@@H](CC(C)C)C(=O)N[C@H](C(=O)NCC(=O)N[C@@H](CC(=O)NCCCOCCOCCOCCCNC(=O)CC[C@H](NC(=O)CCCCCCCCCCCCCCCCC(=O)O)C(=O)O)C(=O)O)CSCC(=O)N[C@@H](Cc2ccc(F)cc2)C(=O)N2CCCC[C@H]2C(=O)N[C@@H](CC(=O)O)C(=O)N2CCC[C@H]2C(=O)N[C@@H](CN)C(=O)N[C@@H](CCC(=O)O)C(=O)N2C[C@H](O)C[C@H]2C(=O)N[C@@H](Cc2c[nH]c3ccccc23)C(=O)N[C@@H](CCN)C(=O)N[C@@H](Cc2cn(CC(=O)O)c3ccccc23)C(=O)N1C` [Example 11266] ({CH2CO}-[Phe(4-F)][Pip]DP[Dap]E[Hyp]W[Dab][Trp(1-CH2COOH)][NMeNle][NMeNle]LCGD(X6)-OH; thioether N-14): 0.3 to 9.9 nM; for `C#CC[C@H](NC(=O)CNC(=O)[C@@H]1CSCC(=O)N[C@@H](Cc2ccc(O)cc2)C(=O)N2CCCC[C@H]2C(=O)N[C@@H](CC(N)=O)C(=O)N2CCC[C@H]2C(=O)N[C@@H](CNC)C(=O)N[C@@H](CC(C)C)C(=O)N2C[C@H](O)C[C@H]2C(=O)N[C@@H](Cc2c[nH]c3ccccc23)C(=O)N[C@@H](CCN)C(=O)N[C@@H](Cc2cn(CC(=O)O)c3ccccc23)C(=O)N(C)[C@@H](CCCC)C(=O)N(C)[C@@H](CCCC)C(=O)N[C@@H](CCC(=O)O)C(=O)N1)C(=O)O` [INT130AL] ({CH2CO}-Y[Pip]NP[Dap(Me)]L[Hyp]W[Dab][Trp(1-CH2COOH)][NMeNle][NMeNle]ECG[Pra]-OH; thioether N-14): 0.3 to 9.9 nM; for `CCCC[C@H]1C(=O)N(C)[C@@H](CCCC)C(=O)N[C@@H](CC(C)C)C(=O)N[C@H](C(=O)NCC(=O)N[C@@H](CC(=O)O)C(=O)NCCCCCCCCCCCCC(=O)O)CSCC(=O)N[C@@H](Cc2ccc(O)cc2)C(=O)N(C)[C@@H](C)C(=O)N[C@@H](CC(=O)O)C(=O)N2CCC[C@H]2C(=O)N[C@@H](Cc2cnc[nH]2)C(=O)N[C@@H](CCCCN)C(=O)N2C[C@H](O)C[C@H]2C(=O)N[C@@H](Cc2c[nH]c3ccccc23)C(=O)N[C@@H](CCCCN)C(=O)N[C@@H](Cc2cn(CC(=O)O)c3ccccc23)C(=O)N1C` [Example 11213] ({CH2CO}-Y[NMeA]DPHK[Hyp]WK[Trp(1-CH2COOH)][NMeNle][NMeNle]LCGD-{NH(CH2)12COOH}; thioether N-14): 10 to 99 nM.
